# In US11179412B2, “Methods of treating conditions involving elevated inflammatory response” (University of Pittsburgh—Of the Commonwealth System of …, priority 2017, dated 2021):
# Entries after “also recorded” stand apart in the source; their conditions may differ.
# What was measured:
# [1] = test system: STING activation (IFNβ release) in iBMDMs; assay: IFNβ release ELISA after STING ligand (or LPS) stimulation, iBMDMs; type: cell-based, mouse; details: iBMDMs; 3′3′-cGAMP 10 μg/ml, 16 hours; compound 10 μM
# Method in brief: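 IFNβ released into the medium was quantified by ELISA (mouse or human kit) after iBMDM stimulation with the canonical STING agonist 3′3′-cGAMP or with LPS.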
# iBMDMs = assay: Cell viability assay (CCK-8), iBMDMs; type: cell-based, mouse; details: 3′3′-cGAMP 10 μg/ml, ALK inhibitor 10 μM, 16 hours
# Protocol: (§1) Cells were seeded into 96-well plates and incubated with the indicated treatments. Subsequently, 100 μl fresh medium was added to cells containing 10 μl Cell Counting Kit-8 (CCK-8) solutions (Dojindo Laboratories) and incubated for 1 h (37° C., 5% CO2). Absorbance at 450 nm was measured using a microplate reader (Tecan).
# pPMs = assay: Cell viability assay (CCK-8), pPMs; type: cell-based, mouse; details: 3′3′-cGAMP 10 μg/ml, ALK inhibitor 10 μM, 16 hours
# Protocol: as §1
# RAW264.7 cells = assay: Cell viability assay (CCK-8), RAW264.7; type: cell-based, mouse; details: 3′3′-cGAMP 10 μg/ml, ALK inhibitor 10 μM, 16 hours
# Protocol: as §1
# THP1 cells = assay: Cell viability assay (CCK-8), THP1; type: cell-based, human; details: 3′3′-cGAMP 10 μg/ml, ALK inhibitor 10 μM, 16 hours
# Protocol: as §1
# [2] = test system: STING activation (IFNβ release) in pPMs; assay: IFNβ release ELISA, primary peritoneal macrophages (pPMs); type: cell-based, mouse; details: mouse pPMs; 3′3′-cGAMP 10 μg/ml, 16 hours; compound 10 μM
# Protocol: Mouse pPMs were isolated from C57BL/6J mice as previously described (69). In brief, eight-week-old female or male C57BL/6J mice were injected with 3.0% thioglycollate medium (2 mL/mouse) into the peritoneum. Three days after injection, mice were sacrificed and injected with 3 mL of 0.05% EDTA-PBS into the peritoneum to harvest peritoneal macrophages. Collected cells were centrifuged at 1000 rpm for 5 min at 4° C., and the cell pellet was washed with PBS and centrifuged again. The cell pellet was then suspended in Dulbecco's Modified Eagle Medium supplemented with 10% FBS and 1× Penicillin-Streptomycin and cultured in a culture dish.
# (§2) Macrophages or monocytes were treated with 3′3′-cGAMP (10 μg/ml, Invitrogen) for 16 hours in the absence or presence of one compound (10 μM) from the Target-selective Inhibitory Library (#L3500, Selleck Chemicals). Commercially available enzyme-linked immunosorbent assay (ELISA) kits were used to measure the concentrations of mouse IFNβ (Thermo Fisher Scientific) or human IFNβ (Thermo Fisher Scientific) in culture medium according to the manufacturer's instructions.
# [3] = test system: STING activation (IFNβ release) in pPBMCs; assay: IFNβ release ELISA, primary peripheral blood mononuclear cells (pPBMCs); type: cell-based; details: human pPBMCs; 3′3′-cGAMP 10 μg/ml, 16 hours; compound 10 μM
# Protocol: as §2
# [4] = test system: STING signaling (TBK1, IRF3, p65, ALK, EGFR, AKT phosphorylation) in iBMDMs; assay: Western blot of STING pathway protein phosphorylation, iBMDMs; type: cell-based, mouse; details: 16 hours, 10 μM; for STING ligand-induced phosphorylation of TBK1, IRF3, and p65: 3′3′-cGAMP or c-di-AMP 10 μg/ml; for 3′3′-cGAMP- or c-di-AMP-induced phosphorylation of ALK, EGFR, and AKT: ligand 10 μg/ml
# Protocol: (§3) For immunoblotting, cells were lysed in Cell Lysis Buffer (#9803, Cell Signaling Technology) with protease inhibitor cocktail (Promega), phosphatase inhibitor cocktail (Sigma), and 1 mM Na3VO4 (70). Cleared lysates were resolved by SDS-PAGE (#3450124, Bio-Rad) and then transferred onto PVDF membranes (#1704273, Bio-Rad). The membranes were blocked with Tris-buffered saline Tween 20 (TBST) containing 5% skim milk for 1 h at room temperature and then incubated with the indicated primary antibodies (1:1000-1:5000) overnight at 4° C. After being washed with TBST, the membranes were incubated with an HRP-linked anti-mouse IgG secondary antibody (#7076, Cell Signaling Technology) or HRP-linked anti-rabbit IgG secondary antibody (#7074, Cell Signaling Technology) for 1 h at room temperature. The membranes were washed three times in TBST and then visualized and analyzed with a ChemiDoc Touch Imaging System (#1708370, Bio-Rad). The intensities of bands were analyzed with Image Lab software.
# [5] = test system: STING signaling (TBK1, IRF3, p65, ALK, EGFR, AKT phosphorylation) in RAW264.7 cells; assay: Western blot of STING pathway protein phosphorylation, RAW264.7; type: cell-based, mouse; details: 16 hours, 10 μM; for STING ligand-induced phosphorylation of TBK1, IRF3, and p65: 3′3′-cGAMP or c-di-AMP 10 μg/ml; for 3′3′-cGAMP- or c-di-AMP-induced phosphorylation of ALK, EGFR, and AKT: ligand 10 μg/ml
# Protocol: as §3
# [6] = test system: STING signaling (TBK1, IRF3, p65, ALK, EGFR, AKT phosphorylation) in THP1 cells; assay: Western blot of STING pathway protein phosphorylation, THP1; type: cell-based, human; details: 16 hours, 10 μM; for STING ligand-induced phosphorylation of TBK1, IRF3, and p65: 3′3′-cGAMP or c-di-AMP 10 μg/ml; for 3′3′-cGAMP- or c-di-AMP-induced phosphorylation of ALK, EGFR, and AKT: ligand 10 μg/ml
# Protocol: as §3
# [7] = target: T1, interaction between ALK and EGFR (Mus musculus, UniProt P97793+Q01279); assay: IP analysis of the interaction between ALK and EGFR, iBMDMs; type: cell-based; details: 3′3′-cGAMP or c-di-AMP 10 μg/ml, 16 hours, 10 μM
# T1 construct: endogenous in cells; host or cells: iBMDMs
# T1 sequence (P97793 19-1621): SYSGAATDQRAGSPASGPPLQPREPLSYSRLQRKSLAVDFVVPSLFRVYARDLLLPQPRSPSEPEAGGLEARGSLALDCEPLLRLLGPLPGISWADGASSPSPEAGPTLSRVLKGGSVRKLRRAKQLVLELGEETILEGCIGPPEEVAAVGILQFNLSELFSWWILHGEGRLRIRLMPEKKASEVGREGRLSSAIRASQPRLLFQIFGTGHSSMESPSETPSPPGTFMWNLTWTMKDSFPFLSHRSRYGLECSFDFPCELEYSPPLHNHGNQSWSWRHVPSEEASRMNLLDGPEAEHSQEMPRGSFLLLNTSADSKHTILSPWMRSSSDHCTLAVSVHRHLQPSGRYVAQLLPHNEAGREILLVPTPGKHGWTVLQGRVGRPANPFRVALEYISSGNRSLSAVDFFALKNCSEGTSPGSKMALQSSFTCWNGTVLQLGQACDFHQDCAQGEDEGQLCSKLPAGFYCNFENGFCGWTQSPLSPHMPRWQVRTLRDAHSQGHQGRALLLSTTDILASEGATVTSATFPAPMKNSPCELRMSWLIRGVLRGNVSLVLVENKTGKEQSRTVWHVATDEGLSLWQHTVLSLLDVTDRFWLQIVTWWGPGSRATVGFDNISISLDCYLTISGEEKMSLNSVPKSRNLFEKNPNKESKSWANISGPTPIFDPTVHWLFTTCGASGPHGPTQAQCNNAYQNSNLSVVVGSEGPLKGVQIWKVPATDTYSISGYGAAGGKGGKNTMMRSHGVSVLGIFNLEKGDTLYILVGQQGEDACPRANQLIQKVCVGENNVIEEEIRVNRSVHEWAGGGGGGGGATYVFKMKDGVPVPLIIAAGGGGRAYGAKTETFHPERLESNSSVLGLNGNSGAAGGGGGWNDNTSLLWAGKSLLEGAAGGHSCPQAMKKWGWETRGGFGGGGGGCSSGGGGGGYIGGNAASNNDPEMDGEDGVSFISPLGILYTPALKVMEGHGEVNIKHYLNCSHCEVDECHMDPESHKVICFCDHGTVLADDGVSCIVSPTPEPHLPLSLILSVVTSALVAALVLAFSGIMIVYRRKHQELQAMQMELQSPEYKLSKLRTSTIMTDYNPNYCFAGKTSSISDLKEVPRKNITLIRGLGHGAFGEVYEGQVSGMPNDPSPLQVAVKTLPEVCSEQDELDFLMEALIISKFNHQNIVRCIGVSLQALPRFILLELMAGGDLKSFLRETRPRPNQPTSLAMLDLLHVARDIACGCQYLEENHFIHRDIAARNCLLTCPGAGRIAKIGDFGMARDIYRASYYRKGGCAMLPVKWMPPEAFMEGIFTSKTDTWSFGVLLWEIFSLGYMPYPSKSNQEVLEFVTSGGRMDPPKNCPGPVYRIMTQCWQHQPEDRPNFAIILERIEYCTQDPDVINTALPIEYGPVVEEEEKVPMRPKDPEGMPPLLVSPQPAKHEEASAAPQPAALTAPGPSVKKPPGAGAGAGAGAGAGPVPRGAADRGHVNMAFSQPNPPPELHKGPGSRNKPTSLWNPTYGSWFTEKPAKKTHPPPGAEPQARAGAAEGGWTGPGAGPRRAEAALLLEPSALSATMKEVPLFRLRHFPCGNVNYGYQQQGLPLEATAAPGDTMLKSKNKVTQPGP
# T1 sequence (Q01279 25-1210): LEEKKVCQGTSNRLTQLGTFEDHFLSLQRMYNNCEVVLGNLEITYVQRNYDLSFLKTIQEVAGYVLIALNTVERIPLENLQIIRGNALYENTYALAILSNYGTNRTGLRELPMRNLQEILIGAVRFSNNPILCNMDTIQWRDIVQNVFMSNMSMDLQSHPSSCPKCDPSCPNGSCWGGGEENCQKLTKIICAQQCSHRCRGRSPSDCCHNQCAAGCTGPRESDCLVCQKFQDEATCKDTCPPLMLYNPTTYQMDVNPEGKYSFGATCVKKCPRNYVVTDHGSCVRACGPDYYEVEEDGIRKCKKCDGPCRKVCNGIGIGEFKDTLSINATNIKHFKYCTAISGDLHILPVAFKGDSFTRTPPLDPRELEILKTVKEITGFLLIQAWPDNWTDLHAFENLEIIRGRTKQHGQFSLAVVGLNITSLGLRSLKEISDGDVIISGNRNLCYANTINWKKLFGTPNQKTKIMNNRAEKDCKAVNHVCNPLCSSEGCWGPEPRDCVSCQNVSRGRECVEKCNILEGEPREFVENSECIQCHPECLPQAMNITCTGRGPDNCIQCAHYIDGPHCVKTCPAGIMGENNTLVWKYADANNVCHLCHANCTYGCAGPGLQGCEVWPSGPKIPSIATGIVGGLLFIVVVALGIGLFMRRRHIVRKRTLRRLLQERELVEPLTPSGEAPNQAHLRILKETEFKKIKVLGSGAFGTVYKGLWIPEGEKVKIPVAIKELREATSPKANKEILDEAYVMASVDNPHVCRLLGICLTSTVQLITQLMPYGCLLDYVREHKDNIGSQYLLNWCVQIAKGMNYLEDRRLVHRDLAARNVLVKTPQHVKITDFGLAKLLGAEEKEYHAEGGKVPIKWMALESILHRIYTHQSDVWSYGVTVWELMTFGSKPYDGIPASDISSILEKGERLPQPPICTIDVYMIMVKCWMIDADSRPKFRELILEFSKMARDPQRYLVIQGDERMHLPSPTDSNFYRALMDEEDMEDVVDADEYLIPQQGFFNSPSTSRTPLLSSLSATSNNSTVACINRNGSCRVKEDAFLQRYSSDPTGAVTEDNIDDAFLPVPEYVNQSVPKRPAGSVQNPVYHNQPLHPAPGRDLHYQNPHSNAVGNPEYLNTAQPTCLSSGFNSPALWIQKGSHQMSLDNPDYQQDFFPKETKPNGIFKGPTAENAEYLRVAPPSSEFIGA
# Protocol: Concentrations of proteins in the supernatant were determined by bicinchoninic acid assay. […] Following incubation, agarose/sepharose beads were washed extensively with PBS and proteins were eluted by boiling in 2× sodium dodecyl sulfate (SDS) sample buffer before SDS-PAGE electrophoresis.
# [8] = target: T2, interaction between ALK and EGFR (Homo sapiens, UniProt P00533+Q9UM73); assay: IP analysis of the interaction between ALK and EGFR, THP1; type: cell-based; details: 3′3′-cGAMP or c-di-AMP 10 μg/ml, 16 hours, 10 μM
# T2 construct: endogenous in cells; host or cells: THP1 cells
# Protocol: For immunoprecipitation, cells were lysed at 4° C. in ice-cold modified radioimmunoprecipitation lysis buffer (#9806, Cell Signaling Technology) and cell lysates were cleared by centrifugation (12,000 g, 10 min). Concentrations of proteins in the supernatant were determined by bicinchoninic acid assay. Prior to immunoprecipitation, samples containing equal amounts of proteins were pre-cleared with Protein A/G agarose/sepharose beads (#20423, Thermo Fisher Scientific Inc.) (4° C., 3 h) and subsequently incubated with various irrelevant IgG or anti-ALK (#ab190934, Abcam) or anti-EGFR antibodies (#2232S, Cell Signaling Technology) in the presence of Protein A/G agarose/sepharose beads overnight at 4° C. with gentle shaking. Following incubation, agarose/sepharose beads were washed extensively with PBS and proteins were eluted by boiling in 2× sodium dodecyl sulfate (SDS) sample buffer before SDS-PAGE electrophoresis.
compound,measurement,setting,value
COc1cc(N2CCC(N3CCN(C)CC3)CC2)ccc1Nc1ncc(Cl)c(Nc2ccccc2P(C)(C)=O)n1 [AP26113],fold increase in IFN-β release,[1],0.19 fold
same,cell viability,iBMDMs,did not affect cell viability
same,cell viability,pPMs,did not affect cell viability
same,cell viability,RAW264.7 cells,did not affect cell viability
same,cell viability,THP1 cells,did not affect cell viability
COc1cc(N2CCC(N)CC2)ccc1Nc1ncc(Cl)c(-c2c[nH]c3ccccc23)n1 [AZD3463],3′3′-cGAMP-induced IFNβ release,[1],blocked; also recorded: diminished
same,fold increase in IFN-β release,[1],0.05 fold
same,3′3′-cGAMP-induced IFNβ release,[2],confirmed their inhibitory properties
same,3′3′-cGAMP-induced IFNβ release,[3],confirmed their inhibitory properties
same,cell viability,iBMDMs,exhibited cytotoxicity
same,cell viability,pPMs,exhibited cytotoxicity
same,cell viability,RAW264.7 cells,exhibited cytotoxicity
same,cell viability,THP1 cells,exhibited cytotoxicity
CC(C)NC[C@@H](C(=O)N1CCN(c2ncnc3c2[C@H](C)C[C@H]3O)CC1)c1ccc(Cl)cc1 [GDC-0068],fold increase in IFN-β release,[1],0.86 fold
same,"STING ligand-induced phosphorylation of TBK1, IRF3, and p65",[4],diminished
same,"3′3′-cGAMP- or c-di-AMP-induced phosphorylation of ALK, EGFR, and AKT",[4],"only blocked the phosphorylation of AKT, but not ALK or EGFR"
same,"STING ligand-induced phosphorylation of TBK1, IRF3, and p65",[5],diminished
same,"3′3′-cGAMP- or c-di-AMP-induced phosphorylation of ALK, EGFR, and AKT",[5],"only blocked the phosphorylation of AKT, but not ALK or EGFR"
same,"STING ligand-induced phosphorylation of TBK1, IRF3, and p65",[6],diminished
same,"3′3′-cGAMP- or c-di-AMP-induced phosphorylation of ALK, EGFR, and AKT",[6],"only blocked the phosphorylation of AKT, but not ALK or EGFR"
O=C(/C=C\n1cnc(-c2cc(C(F)(F)F)cc(C(F)(F)F)c2)n1)NNc1cnccn1 [KPT-330],3′3′-cGAMP-induced IFNβ release,[1],blocked
same,fold increase in IFN-β release,[1],0.05 fold
same,3′3′-cGAMP-induced IFNβ release,[2],confirmed their inhibitory properties
same,3′3′-cGAMP-induced IFNβ release,[3],confirmed their inhibitory properties
C[C@@H]1CN(CC(=O)Nc2ccc3c(c2)Cc2cccc(-c4cc(=O)cc(N5CCOCC5)o4)c2S3)C[C@H](C)O1 [KU-60019],3′3′-cGAMP-induced IFNβ release,[1],blocked
same,fold increase in IFN-β release,[1],0.06 fold
same,3′3′-cGAMP-induced IFNβ release,[2],confirmed their inhibitory properties
same,3′3′-cGAMP-induced IFNβ release,[3],confirmed their inhibitory properties
C#Cc1cccc(Nc2ncnc3cc(OCCOC)c(OCCO)cc23)c1 [OSI-420],fold increase in IFN-β release,[1],0.14 fold
same,"STING ligand-induced phosphorylation of TBK1, IRF3, and p65",[4],diminished
same,"3′3′-cGAMP- or c-di-AMP-induced phosphorylation of ALK, EGFR, and AKT",[4],attenuated
same,"STING ligand-induced phosphorylation of TBK1, IRF3, and p65",[5],diminished
same,"3′3′-cGAMP- or c-di-AMP-induced phosphorylation of ALK, EGFR, and AKT",[5],attenuated
same,"STING ligand-induced phosphorylation of TBK1, IRF3, and p65",[6],diminished
same,"3′3′-cGAMP- or c-di-AMP-induced phosphorylation of ALK, EGFR, and AKT",[6],attenuated
same,interaction between ALK and EGFR,[7],reduced
same,interaction between ALK and EGFR,[8],reduced
"Cl.NC(=O)c1cnc(N[C@@H]2CCCC[C@@H]2N)nc1Nc1cccc(-n2nccn2)c1 [PRT062607 (P505-15, BIIB057) HCl]",3′3′-cGAMP-induced IFNβ release,[1],blocked
same,fold increase in IFN-β release,[1],0.07 fold
same,3′3′-cGAMP-induced IFNβ release,[2],confirmed their inhibitory properties
same,3′3′-cGAMP-induced IFNβ release,[3],confirmed their inhibitory properties
(−)-Parthenolide,fold increase in IFN-β release,[1],0.16 fold
HO-3867,fold increase in IFN-β release,[1],0.52 fold
HSP990 (NVP-HSP990),fold increase in IFN-β release,[1],0.26 fold
IM-12,fold increase in IFN-β release,[1],2.17 fold
Ifenprodil Tartrate,fold increase in IFN-β release,[1],1.71 fold
KX2-391,fold increase in IFN-β release,[1],0.77 fold
Maraviroc,fold increase in IFN-β release,[1],2.50 fold
OG-L002,fold increase in IFN-β release,[1],1.06 fold
PF-04620110,fold increase in IFN-β release,[1],3.43 fold
Pifithrin-μ,fold increase in IFN-β release,[1],0.16 fold
S3I-201,fold increase in IFN-β release,[1],0.88 fold
SN-38,fold increase in IFN-β release,[1],1.72 fold
SNS-314 Mesylate,fold increase in IFN-β release,[1],1.10 fold
Tropicamide,fold increase in IFN-β release,[1],2.09 fold
VU 0357121,fold increase in IFN-β release,[1],1.49 fold
VU 0364439,fold increase in IFN-β release,[1],1.60 fold
VU 0364770,fold increase in IFN-β release,[1],2.00 fold
